Several values for one entry are separate records, joined by “and”; a condition that tells them apart may be missing. Equal entries are not always repeated.
Tested on: 876862-298-R-J1-PDC complex spheroids, viability % test/control
Assay: Anticancer human tumor 876862-298-R-J1-PDC patient-derived endometrial carcinoma cell line growth inhibition [CLK]
Settings: for viability, T/C: stronger effect = lower value
Procedure, shortened: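 Multi-cell-type spheroids combined patient-derived tumor cells with HUVEC endothelial cells and human mesenchymal stem cells. Paired agents were dosed in half-log steps down from about clinical Cmax, or from 10 microM where Cmax was unknown.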

[1] = curve of first compound, second compound 0.0316 µM
[2] = curve of first compound, second compound 0.1 µM
[3] = curve of first compound, second compound 0.316 µM
[4] = curve of first compound, second compound 1 µM
[5] = curve of first compound, second compound 3.16 µM
[6] = curve of first compound, second compound 10 µM
[7] = second compound 0.0316 µM, first compound 0.0316 µM
[8] = second compound 0.0316 µM, first compound 0.1 µM
[9] = second compound 0.0316 µM, first compound 0.316 µM
[10] = second compound 0.0316 µM, first compound 1 µM
[11] = second compound 0.0316 µM, first compound 3.16 µM
[12] = second compound 0.0316 µM, first compound 10 µM
[13] = second compound 0.1 µM, first compound 0.0316 µM
[14] = second compound 0.1 µM, first compound 0.1 µM
[15] = second compound 0.1 µM, first compound 0.316 µM
[16] = second compound 0.1 µM, first compound 1 µM
[17] = second compound 0.1 µM, first compound 3.16 µM
[18] = second compound 0.1 µM, first compound 10 µM
[19] = second compound 0.316 µM, first compound 0.0316 µM
[20] = second compound 0.316 µM, first compound 0.1 µM
[21] = second compound 0.316 µM, first compound 0.316 µM
[22] = second compound 0.316 µM, first compound 1 µM
[23] = second compound 0.316 µM, first compound 3.16 µM
[24] = second compound 0.316 µM, first compound 10 µM
[25] = second compound 1 µM, first compound 0.0316 µM
[26] = second compound 1 µM, first compound 0.1 µM
[27] = second compound 1 µM, first compound 0.316 µM
[28] = second compound 1 µM, first compound 1 µM
[29] = second compound 1 µM, first compound 3.16 µM
[30] = second compound 1 µM, first compound 10 µM
[31] = second compound 3.16 µM, first compound 0.0316 µM
[32] = second compound 3.16 µM, first compound 0.1 µM
[33] = second compound 3.16 µM, first compound 0.316 µM
[34] = second compound 3.16 µM, first compound 1 µM
[35] = second compound 3.16 µM, first compound 3.16 µM
[36] = second compound 3.16 µM, first compound 10 µM
[37] = second compound 10 µM, first compound 0.0316 µM
[38] = second compound 10 µM, first compound 0.1 µM
[39] = second compound 10 µM, first compound 0.316 µM
[40] = second compound 10 µM, first compound 1 µM
[41] = second compound 10 µM, first compound 3.16 µM
[42] = second compound 10 µM, first compound 10 µM
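Also: spheroids exposed to drugs for 7 days before readout.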
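For viability, T/C in this document: 100% = DMSO vehicle control wells.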

For Nc1ccn(C2OC(CO)C(O)C2(F)F)c(=O)n1 (stereo not drawn) + CN1CCN(c2cc(C(=O)Nc3cc4cc(-c5cnn(C)c5)ccc4cn3)ccn2)CC1, the IC50 [1] was < 31.6 nM, the IC50 [2] was < 31.6 nM and the IC50 [3] was < 31.6 nM. For the same molecule, the IC50 [4] was < 31.6 nM, the IC50 [5] was < 31.6 nM and the IC50 [6] was < 31.6 nM. The viability, T/C [7] was 22.6%, the viability, T/C [8] was 8.64% and the viability, T/C [9] was 6.4%. It also gave a viability, T/C [10] of 7.52%, a viability, T/C [11] of 6.95% and a viability, T/C [12] of 5.95%. It also gave a viability, T/C [13] of 13.8%, a viability, T/C [14] of 8.73% and a viability, T/C [15] of 7.61%. The viability, T/C [16] was 7.32%, the viability, T/C [17] was 7.36% and the viability, T/C [18] was 6.15%. The viability, T/C [19] was 1.98%, the viability, T/C [20] was 2.23% and the viability, T/C [21] was 2.31%. The viability, T/C [22] was 2.07%, the viability, T/C [23] was 1.76% and the viability, T/C [24] was 1.74%. The viability, T/C [25] was 0.86%, the viability, T/C [26] was 0.6% and the viability, T/C [27] was 1.16%. The viability, T/C [28] was 0.96%, the viability, T/C [29] was 0.79% and the viability, T/C [30] was 0.99%. The viability, T/C [31] was 0.84%, the viability, T/C [32] was 0.93% and the viability, T/C [33] was 0.9%. For the same molecule, the viability, T/C [34] was 0.86%, the viability, T/C [35] was 1.01% and the viability, T/C [36] was 0.93%. For the same molecule, the viability, T/C [37] was 0.55%, the viability, T/C [38] was 0.43% and the viability, T/C [39] was 0.48%. The viability, T/C [40] was 0.64%, the viability, T/C [41] was 0.74% and the viability, T/C [42] was 0.72%.

For Cn1ncnc1[C@H]1c2n[nH]c(=O)c3cc(F)cc(c23)N[C@@H]1c1ccc(F)cc1 + CN1CCN(c2cc(C(=O)Nc3cc4cc(-c5cnn(C)c5)ccc4cn3)ccn2)CC1, the IC50 [1] was > 100 nM, the IC50 [2] was < 0.316 nM and the IC50 [3] was < 0.316 nM. For the same molecule, the IC50 [4] was < 0.316 nM, the IC50 [5] was < 0.316 nM and the IC50 [6] was < 0.316 nM. For the same molecule, the viability, T/C (second compound 0.0316 µM, first compound 0.000316 µM) was 94.8%, the viability, T/C (second compound 0.0316 µM, first compound 0.001 µM) was 81.4% and the viability, T/C (second compound 0.0316 µM, first compound 0.00316 µM) was 89.7%. The viability, T/C (second compound 0.0316 µM, first compound 0.01 µM) was 87%, the viability, T/C [7] was 99.8% and the viability, T/C [8] was 81.6%. The viability, T/C (second compound 0.1 µM, first compound 0.000316 µM) was 44.7%, the viability, T/C (second compound 0.1 µM, first compound 0.001 µM) was 48.4% and the viability, T/C (second compound 0.1 µM, first compound 0.00316 µM) was 44.7%. It also gave a viability, T/C (second compound 0.1 µM, first compound 0.01 µM) of 48%, a viability, T/C [13] of 43.2% and a viability, T/C [14] of 37.9%. It also gave a viability, T/C (second compound 0.316 µM, first compound 0.000316 µM) of 2.64%, a viability, T/C (second compound 0.316 µM, first compound 0.001 µM) of 2.72% and a viability, T/C (second compound 0.316 µM, first compound 0.00316 µM) of 2.87%. It also gave a viability, T/C (second compound 0.316 µM, first compound 0.01 µM) of 3.16%, a viability, T/C [19] of 2.95% and a viability, T/C [20] of 2.25%. The viability, T/C (second compound 1 µM, first compound 0.000316 µM) was 0.47%, the viability, T/C (second compound 1 µM, first compound 0.001 µM) was 0.71% and the viability, T/C (second compound 1 µM, first compound 0.00316 µM) was 1%. It also gave a viability, T/C (second compound 1 µM, first compound 0.01 µM) of 0.8%, a viability, T/C [25] of 0.52% and a viability, T/C [26] of 0.74%. The viability, T/C (second compound 3.16 µM, first compound 0.000316 µM) was 0.96%, the viability, T/C (second compound 3.16 µM, first compound 0.001 µM) was 0.86% and the viability, T/C (second compound 3.16 µM, first compound 0.00316 µM) was 0.88%. It also gave a viability, T/C (second compound 3.16 µM, first compound 0.01 µM) of 0.88%, a viability, T/C [31] of 1.01% and a viability, T/C [32] of 0.64%. The viability, T/C (second compound 10 µM, first compound 0.000316 µM) was 0.56%, the viability, T/C (second compound 10 µM, first compound 0.001 µM) was 0.62% and the viability, T/C (second compound 10 µM, first compound 0.00316 µM) was 0.88%. The viability, T/C (second compound 10 µM, first compound 0.01 µM) was 0.76%, the viability, T/C [37] was 0.63% and the viability, T/C [38] was 0.56%.

In the case of COc1c(OCCCN2CCOCC2)ccc2c3n(c(=NC(=O)c4cnc(N)nc4)nc12)CCN3, the viability, T/C (compound 0.00316 µM) is reported as 105% and 81.8%, the viability, T/C (compound 0.01 µM) is reported as 89.7% and 83.9% and the viability, T/C (compound 0.0316 µM) is reported as 70.9% and 57%. For the same molecule, the viability, T/C (compound 0.1 µM) was 37.8% and 26.3%, the viability, T/C (compound 0.316 µM) was 17% and 14.9% and the viability, T/C (compound 1 µM) was 15% and 16%. The IC50 (curve of compound) was 63.5 nM and 42.1 nM.

In the case of Nc1ccccc1NC(=O)c1ccc(CNC(=O)OCc2cccnc2)cc1 + CN1CCN(c2cc(C(=O)Nc3cc4cc(-c5cnn(C)c5)ccc4cn3)ccn2)CC1, the IC50 [1] is reported as 4010 nM, the IC50 [2] is reported as < 31.6 nM and the IC50 [3] is reported as < 31.6 nM. The IC50 [4] was < 31.6 nM, the IC50 [5] was < 31.6 nM and the IC50 [6] was < 31.6 nM. For the same molecule, the viability, T/C [7] was 86.8%, the viability, T/C [8] was 95.2% and the viability, T/C [9] was 81.9%. For the same molecule, the viability, T/C [10] was 83.9%, the viability, T/C [11] was 54.9% and the viability, T/C [12] was 30.6%. It also gave a viability, T/C [13] of 48.5%, a viability, T/C [14] of 48.5% and a viability, T/C [15] of 40.9%. The viability, T/C [16] was 34.1%, the viability, T/C [17] was 15.7% and the viability, T/C [18] was 3.34%. The viability, T/C [19] was 2.84%, the viability, T/C [20] was 1.59% and the viability, T/C [21] was 1.03%. For the same molecule, the viability, T/C [22] was 0.37%, the viability, T/C [23] was 0.85% and the viability, T/C [24] was 0.12%. It also gave a viability, T/C [25] of 0.89%, a viability, T/C [26] of 1.78% and a viability, T/C [27] of 1.05%. For the same molecule, the viability, T/C [28] was 0.95%, the viability, T/C [29] was 1.68% and the viability, T/C [30] was 1.65%. It also gave a viability, T/C [31] of 1.22%, a viability, T/C [32] of 1.55% and a viability, T/C [33] of 1.06%. The viability, T/C [34] was 1.89%, the viability, T/C [35] was 2.98% and the viability, T/C [36] was 3.09%. It also gave a viability, T/C [37] of 0.79%, a viability, T/C [38] of 1.03% and a viability, T/C [39] of 2.17%. For the same molecule, the viability, T/C [40] was 1.89%, the viability, T/C [41] was 3.24% and the viability, T/C [42] was 1.78%.

Reference: PubChem BioAssay AID2060607 (Molecular Pharmacology Branch, DTP, NCI, 2025)
